Active and inactive are the calls of the source. The calls are words filed in the database; no cut-off is given here.
Tests used:
3T3-L1 [1] = experiment: Induction of adipogenesis in mouse 3T3L1 cells assessed as increase in triglyceride content at 1 uM after 8 days by Oil red O staining relative to control; assay type: functional
3T3-L1 [2] = experiment: Upregulation of GLUT4 gene expression in mouse 3T3L1 cells by RT-PCR analysis; assay type: functional, cell-based
3T3-L1 [3] = experiment: Upregulation of aP2 protein expression in mouse 3T3L1 cells by Western blot analysis; assay type: functional, cell-based
3T3-L1 [4] = experiment: Induction of adipogenesis in mouse 3T3L1 cells assessed as increase in triglyceride content at 7.5 uM after 8 days by Oil red O staining relative to control; assay type: functional
3T3-L1 [5] = experiment: Upregulation of aP2 gene expression in mouse 3T3L1 cells by RT-PCR analysis; assay type: functional, cell-based
3T3-L1 [6] = experiment: Induction of adipogenesis in mouse 3T3L1 cells assessed as increase in triglyceride content at 15 uM after 8 days by Oil red O staining relative to control; assay type: functional
3T3-L1 [7] = experiment: Upregulation of GLUT4 protein expression in mouse 3T3L1 cells by Western blot analysis; assay type: functional, cell-based
3T3-L1 [8] = experiment: Induction of adipogenesis in mouse 3T3L1 cells assessed as increase in triglyceride content at 10 uM after 8 days by Oil red O staining relative to control; assay type: functional
3T3-L1 [9] = experiment: Induction of adipogenesis in mouse 3T3L1 cells assessed as increase in triglyceride content at 5 uM after 8 days by Oil red O staining relative to control; assay type: functional
3T3-L1 [10] = experiment: Induction of adipogenesis in mouse 3T3L1 cells assessed as increase in triglyceride content after 8 days by Oil red O staining relative to control; assay type: functional, cell-based

Row | SMILES | Activity (3T3-L1 [1]) [%] | Activity (3T3-L1 [2]) | Activity (3T3-L1 [3]) | Activity (3T3-L1 [4]) [%] | Activity (3T3-L1 [5]) | Activity (3T3-L1 [6]) [%] | Activity (3T3-L1 [7]) | Activity (3T3-L1 [8]) [%] | Activity (3T3-L1 [9]) [%] | Activity (3T3-L1 [10])
1 | CN(CCOc1ccc(CC2SC(=O)NC2=O)cc1)c1ccccn1 (stereo not given) [ROSIGLITAZONE] | 984.24 | – | – | – | – | – | – | – | – | –
2 | CC(C)=CCC/C(C)=C/Cc1c(-c2oc3c(CC=C(C)C)c(O)cc(O)c3c(=O)c2O)ccc(O)c1O [NOTABILISIN C] | – | Active | Active | 312.24 | Active | 948.51 | Active | – | – | –
3 | CC(C)=CCc1c(O)ccc(C(=O)[C@H]2[C@@H](c3c(O)cc(-c4cc5ccc(O)cc5o4)cc3O)C=C(C)C[C@@H]2c2ccc(O)cc2O)c1O [CHALCOMORACIN] | – | inactive | Active | 109.99 | inactive | 125.36 | inactive | – | – | –
4 | COc1c(-c2ccc(O)c(O)c2C/C=C(\C)CCC=C(C)C)oc2cc(O)cc(O)c2c1=O [NOTABILISIN A] | – | Active | Active | – | Active | – | Active | 513.55 | 305.32 | –
5 | CC(C)=CCc1c(O)ccc(C(=O)[C@H]2[C@@H](c3c(O)ccc(C(=O)/C=C/c4ccc(O)cc4O)c3O)C=C(C)C[C@@H]2c2ccc(O)cc2O)c1O | – | – | – | – | – | – | – | – | – | inactive

From ChEMBL document CHEMBL1806400, “New isoprenylated flavonoids and adipogenesis-promoting constituents from Morus notabilis” (2011)
